Patent US8968700B2, “Imaging of protease activity in live cells using activity based probes” (The Board of Trustees of the Leland Stanford Junior …, priority 2005, dated 2015)

Experiments:
human cathepsin L [1] = biological target: T1, human cathepsin L (Homo sapiens, UniProt P07711); assay: Kinetics of inhibition, progress curve method (kass); assay type: biochemical; conditions: human cathepsin L 1 nM; substrate Z-FR-AMC 10 μM; pseudo-first order
Method: (§1) The kinetics of inhibition was determined by progress curve method under pseudo-first order conditions with at least 10-fold molar excess of inhibitor. Recorded progress curves were analyzed by non-linear regression according to the following equation (Ref 36).
(§2) [P]=vz(1−e^−k·t)/k where [P] is the product, vz is the velocity at time zero and k is the pseudo first order rate constant. Apparent rate constant (kapp) was determined from the slope of plot k versus [I]. Due to irreversible and competitive mechanism of inhibition, kapp was converted to the association constant (kass) using the equation below: kass=kapp(1+[S]/KM)
(§3) Activity of human cathepsin L was measured using the fluorogenic substrate Z-FRAMC37 (Bachem, USA) (Km=7.1 μM) and cathepsin B was assayed against the fluorogenic substrate Z-RR-AMC38 (Bachem, USA) (Km=114 μM). Concentration of substrates during the measurement was 10 μM. Cathepsins B and L (1 nM final concentrations) were incubated with inhibitor concentrations, ranging from 10 to 2000 nM, in the presence of 10 μM of appropriate substrate. Total volume during the measurement was 100 μl. Increase of fluorescence (370 nm excitation, […] emission) was continuously monitored for 30 minutes by Spectramax M5 spectrofluorimeter.
(§4) (Molecular Devices, USA) and inhibition curves were recorded. DMSO concentration during all measurements was 3.5%.

bovine cathepsin B [2] = biological target: T2, bovine cathepsin B (Bos taurus, UniProt P07688); assay: as above; assay type: biochemical; conditions: bovine cathepsin B 1 nM; substrate Z-RR-AMC 10 μM; pseudo-first order
Method: as §1, §2, §3, §4

human cathepsin L [3] = biological target: T1, human cathepsin L; assay: Recombinant cathepsin labeling, SDS-PAGE fluorescent scan; assay type: biochemical; set-up: gift from Dr. V. Turk, Jozef Stefan Institute, Slovenia; conditions: labeling by GB111 and GB117
Method: (§5) 0.7 μg recombinant human Cathepsin L (a generous gift from Dr. V. Turk Jozef, Stefan institute Slovenia) or 0.4 μg bovine Cathepsin B (Sigma) in reaction buffer (50 mM acetate, 2 mM DTT and 5 mM MgCl2, pH 5.5) were treated with 25 μM JPM-OEt for 30 min (indicated samples) at room temperature. Increasing concentrations of GB111, GB117, were added to appropriate samples for 30 min. The reaction was stopped by adding sample buffer X4 (40% glycerol, 0.2M Tris/HCl 6.8, 20% β-mercaptoethanol, 12% SDS and 0.4 mg/ml bromophenol blue). Half of the sample was separated on a 12% SDS gel and scanned by a Typhoon laser flatbed scanner at 532/580.

MCF-10A cells = assay: Imaging in three-dimensional cell culture on Cultrex, confocal microscopy; assay type: cell-based; conditions: JPM-OEt 50 μM
Method: In these experiments, reconstituted basement membrane, Cultrex (Trevigen) was mixed with 1 μM GB111 or GB117 with or without JPM-OEt (50 μM). MCF-10A cells were grown three-dimensional cultures on Cultrex containing probes with or without inhibitor for 3 days then imaged by confocal microscopy using a water immersion lens (Zeiss).
MCF-10A cells were grown in 3D culture on reconstituted basement membrane extracted from an EHS mouse sarcoma (Cultrex from Trevigen) as previously described 35. GB117 or GB111 was added to Cultrex (1 μM final concentration) upon cell seeding and day 3 structures were imaged as described below. Day 8 structures grown Cultrex without probes were treated with 1 μM GB111 for 3 hours in assay media (culture media with 2% horse serum and 5 ng/mL EGF). Cells were washed overnight in assay media, fixed and imaged as described below.

[4] = system: endogenous cathepsin activity; assay: In vivo whole animal imaging with spectral imager; set-up: species or system mouse; conditions: 100 mg/kg IP 2 hours prior to GB117
Source text: Photographs illustrating fluorescence imaging of endogenous cathepsin activity in live mice using the quenched activity-based probe GB117 were obtained with the CR1-Maestro™ Spectral imager, and comparisons were made between mice (a) with no probe, (b) with GB117 and (c) with GB117 plus the general cathepsin inhibitor JPM-OEt.
Areas of more intense labeling in the center of the animal (likely labeling of the liver, an organ with high cathepsin activity) were seen.
This work utilized a spectral imager (CRI Maestro) at the small animal imaging facility at Stanford. This new technology makes it possible to acquire the entire spectrum of light emission. Following spectral acquisition, the wavelengths specific to the injected probe can be defined, and autofluorescence subtracted. […] Techniques for spectral imaging in connection with multiple chromosome labels (“chromosome painting”) are known and may be adapted for use in vivo. See U.S. Pat. Nos. 5,936,731 and 6,690,817. A spectral imager is capable of collecting spatial (imaging) information as well as spectral information at every pixel in the image. This 3 dimensional data set enables the detailed study of both absorptive and fluorescent, histological and cellular material. […]

bovine cathepsin B [5] = biological target: T2, bovine cathepsin B; assay: Recombinant cathepsin labeling, SDS-PAGE fluorescent scan; assay type: biochemical; conditions: labeling by GB111 and GB117
Method: as §5

NIH-3T3 cells = assay: Imaging protease activity in live cells, fluorescence microscopy; assay type: cell-based, mouse; conditions: JPM-OEt 50 μM, 1 hour
Method: In these experiments (data not shown), cultures of NIH-3T3 cells were either pre-treated with the general papain family protease inhibitor JPM-OEt (50 μM) or with control DMSO (0.1%) for 1 hour and labeled by addition of GB111 or GB117 (1 μM) to growth media for 4-5 hours. The acidotropic lysosomal marker LysoTracker (which produces a green color) was added and cells were imaged using an inverted fluorescent microscope (Nikon). Cells were also treated and analyzed after being washed for 3 hours in growth media containing JPM-OEt (50 μM) or DMSO (0.1%) prior to imaging. As a result, red fluorescence—indicating protease activity, green fluorescence—indicating lysosomal compartments, and yellow fluorescence resulting from overlap in green and red signals was observed.
NIH 3T3 cells (165,000 cells/well) were seeded on glass cover slips in six-well tissue culture plates containing growth medium 1 day before treatment. Cells were either pretreated with the general papain family protease inhibitor JPM-OEt (50 μM) or with control DMSO (0.1%) for 1 hour. Cells were labeled by addition of GB111 or GB117 (1 μM) to growth media at pH 7.4 for 4-5 hours. Cells were transferred to growth media without phenol red. LysoTracker (50 nM final concentration) was added minutes before cells were imaged using an inverted fluorescent microscope (Nikon Diaphot-300 microscope with the 60 (NA 1.4) objective). […]

MDA-MB 231 tumors = assay: In vivo imaging of cysteine protease activity in tumor-bearing mice (IVIS 200); set-up: species or system mouse; conditions: tail vein injection
Method: Three weeks prior to imaging, MDA-MB 435 or MDA-MB 231 cells (3×10^6 cell per site) were subcutaneously injected into the back left and right side of a Balb-c nude mouse. As is known in the literature, MDA-MB-435, expresses ALP56 (aspartic-like protease 56 kDa), which has homology to aspartic proteases, such as cathepsin D. Similarly, a trypsin-like protease secreted from MDA MB-231 cells can promote cell migration through autocrine activation of PAR-2. GB123 (1 μg) dissolved in DMSO/PBS was injected via the tail vein. Fluorescent images of living mice taken using an IVIS 200 imaging system equipped with a Cy5.5 filter at various time points after GB123 injection show localization of the probe to a tumor site. […] Labeling of active cysteine proteases in cell lines used to generate the tumors was carried out on SDS-PAGE. Intact monolayers of MDA MB-231 or MDA MB-435 cells were either pre-treated with the general papain family protease inhibitor JPM-OEt (50 μM) or with control DMSO (0.1%) for one hour and labeled by addition of GB123 (1 μM) to culture media for four hours. Crude detergent lysates were normalized for total protein, separated by SDS-PAGE, and visualized by scanning of the gel with a Typhoon flatbed laser scanner. […] Plotted values are expressed as percentage of fluorescence measured relative to the signal observed at two hours post injection of probe.

[6] = system: MDA MB-231 or MDA MB-435 cells; assay: Labeling of active cysteine proteases in intact monolayers of tumor cell lines, SDS-PAGE; assay type: cell-based; conditions: 1 μM, four hours
Method: GB123 (1 μg) dissolved in DMSO/PBS was injected via the tail vein. Fluorescent images of living mice taken using an IVIS 200 imaging system equipped with a Cy5.5 filter at various time points after GB123 injection show localization of the probe to a tumor site. […] Labeling of active cysteine proteases in cell lines used to generate the tumors was carried out on SDS-PAGE. Intact monolayers of MDA MB-231 or MDA MB-435 cells were either pre-treated with the general papain family protease inhibitor JPM-OEt (50 μM) or with control DMSO (0.1%) for one hour and labeled by addition of GB123 (1 μM) to culture media for four hours. Crude detergent lysates were normalized for total protein, separated by SDS-PAGE, and visualized by scanning of the gel with a Typhoon flatbed laser scanner. […] All of these specific activities were sensitive to pre-treatment with the general inhibitor JPM-OEt. […] Plotted values are expressed as percentage of fluorescence measured relative to the signal observed at two hours post injection of probe.

[7] = system: protease species in tumor lysates; assay: Biochemical analysis of in vivo labeled tumors, SDS-PAGE of lysates; set-up: species or system mouse; conditions: FIG. 6a
Source text: Tumors from mice described in Example 7 were lysed in a detergent buffer. Crude lysates were normalized for total protein, separated by SDS-PAGE, and visualized by scanning of the gel with a Typhoon flatbed laser scanner, fluorescent images of corresponding mice are shown below gel images, where spotted areas indicate fluorescent readings, as obtained in Example 7. […] Lysates from a C2C12/ras tumor locally injected with DMSO/PBS were immuno precipitated using anti cathepsin B or cathepsin L antibodies as indicated. Samples were separated by SDS-PAGE, and visualized by scanning of the gel with a Typhoon flatbed laser scanner, as shown in FIG. 6b. The antibodies precipitated cat B and cat L complexes, indicating specific labeling of these proteases.

[8] = system: MDA-MB 231 or C2C12/ras tumors; assay: In vivo labeling of live mice with active probe and control inactive probe; set-up: species or system mouse
Method: Two to four weeks prior to imaging MDA-MB 231 or C2C12/ras cells (a myoblast cell line wherein ras blocks differentiation) at 2×10^6 cell per spot were injected subcutaneous to the back of Balb-c nude mice.
Mice bearing tumors of similar size were injected intravenous via the tail vein with a DMSO/PBS solution of GB123 or GB125 (0.8-1.1 μg/gr mice). DMSO/PBS was locally injected directly into tumors in indicated mice, 15 minutes prior to probe injection. Fluorescent intensity as photons per second per centimeter square per steradian (p/s/cm^2/sr) was recorded from living mice, (data not shown). Images were taken at various time points (e.g., 1 min., 5 hrs. and 22 hrs.) after probe injection using an IVIS 200 imaging system equipped with a Cy5.5 filter.

tumor tissues = assay: Ex vivo imaging of tumor tissue cryo-sections; assay type: in vivo, mouse; conditions: 24 hours after probe injection, Cy5 channel
Method: Tumors from mice injected with either GB123 or GB125 were extracted 24 hours after probe injection and molded in OCT placed in tert-butanol cooled with liquid nitrogen. Cryo-sections (10 μm) of tumors were mounted with Fluoromount and imaged using a Zeiss 200M fluorescent microscope using a 40× lens and a Cy5 filter.

T1 sequence (P07711 114-333): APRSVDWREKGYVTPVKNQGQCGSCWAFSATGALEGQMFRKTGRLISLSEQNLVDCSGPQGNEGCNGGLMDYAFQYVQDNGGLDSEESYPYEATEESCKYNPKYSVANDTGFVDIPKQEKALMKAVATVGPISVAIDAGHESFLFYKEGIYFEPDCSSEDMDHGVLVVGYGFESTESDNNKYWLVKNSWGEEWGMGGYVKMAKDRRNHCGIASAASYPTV

Cc1cccc(C)c1C(=O)OCC(=O)[C@H](CCCCN)NC(=O)[C@H](Cc1ccccc1)NC(=O)OCc1ccccc1 [GB111-NH2]
kass (inhibition rate constant) (human cathepsin L [1]): 296400 ± 18100 M^−1s^1
kass (inhibition rate constant) (bovine cathepsin B [2]): 38500 ± 7700 M^−1s^1

JPM-OEt
effect of inhibitor pre-treatment on probe labeling (human cathepsin L [3]): specifically competed
effect of inhibitor on GB117 staining in 3D culture (MCF-10A cells): completely blocked
effect of inhibitor pre-treatment on GB117 signal in live mouse [4]: significantly reduced fluorescent signal in the entire animal
effect of inhibitor pre-treatment on probe labeling (bovine cathepsin B [5]): specifically competed
effect of inhibitor pre-treatment on GB117 labeling pattern (NIH-3T3 cells): blocked

CCN1C(=CC=CC=CC2=[N+](CCCCCC(=O)NCCCC[C@H](NC(=O)[C@H](Cc3ccccc3)NC(=O)OCc3ccccc3)C(=O)COC(=O)c3c(C)cccc3C)c3ccc(S(=O)(=O)O)cc3C2(C)C)C(C)(C)c2cc(S(=O)(=O)O)ccc21 [GB123]
fluorescent signal in tumor (MDA-MB 231 tumors): accumulation of fluorescent signal was observed over time
labeling of cysteine protease activities in cell lines [6]: increased labeling of a number of cysteine protease activities in MDA-MB 231 relative to the MDA-MB 435 cells
fluorescence of labeled bands in tumor lysates [7]: significant fluorescence
fluorescence after 1 min. ([8]; MDA-MB-231 injected mice): showed fluorescence
retention of observable signal ([8]; intravenous via tail vein, 0.8-1.1 μg/gr): at least 22 hrs
fluorescent signal in tumor cryo-sections (tumor tissues): accumulation of the specific fluorescent signal
